The NIST ThermoML archive (doi:10.1016/j.fluid.2013.10.038)

Test: excess molar enthalpy (molar enthalpy of mixing); xn = mol fraction of the nth substance listed
Details: Liquid, Flow calorimetry

CCOC(C)=O [ethyl acetate] + O=C=O
excess molar enthalpy [kcal/mol]
Details | 298.15 K | 303.15 K | 308.15 K
5000 kPa, x2 = 0.099 | -0.284 | -0.294 | -0.346
5000 kPa, x2 = 0.199 | -0.567 | -0.582 | -0.556
5000 kPa, x2 = 0.3 | -0.837 | -0.87 | -0.839
5000 kPa, x2 = 0.4 | -1.11 | -1.14 | -1.1
5000 kPa, x2 = 0.5 | -1.37 | – | –
6000 kPa, x2 = 0.101 | -0.251 | -0.275 | -0.274
6000 kPa, x2 = 0.2 | -0.512 | -0.535 | -0.543
6000 kPa, x2 = 0.3 | -0.757 | -0.793 | -0.791
6000 kPa, x2 = 0.399 | -0.984 | -1.04 | -1.05
6000 kPa, x2 = 0.5 | -1.21 | -1.27 | –
7000 kPa, x2 = 0.1 | -0.0915 | -0.216 | -0.238
7000 kPa, x2 = 0.2 | -0.167 | -0.432 | -0.473
7000 kPa, x2 = 0.299 | -0.239 | -0.647 | -0.709
7000 kPa, x2 = 0.4 | -0.304 | -0.849 | -0.928
7000 kPa, x2 = 0.5 | – | -1.02 | -1.13
